# Measured values reported in patent publication US6699970B2, “Mutacin I biosynthesis genes and proteins” (priority 2000, dated 2004).
# Legend:
# [1] = test system: enterococci; experiment: antimicrobial spectrum assay; assay type: cell-based; details: comparison of mutacin I and mutacin III
# [2] = test system: pneumococci; experiment: antimicrobial spectrum assay; assay type: cell-based; details: comparison of mutacin I and mutacin III
# [3] = test system: Group A streptococci; experiment: antimicrobial spectrum assay; assay type: cell-based; details: comparison of mutacin I and mutacin III
# [4] = reverse-phase HPLC analysis (hydrophobicity); assay type: physicochemical; details: from acetonitrile concentration at elution
# Text: For purification, the crude extract of mutacin I (SEQ ID No: 2) was applied to a Source 15RPC column and eluted with a fragmented gradient A (0.1% TFA) and B (0.085% TFA in 60% acetonitrile) using a LKB Purifier (Amersham Pharmacia Biotech, Piscataway, N.J.). The active fractions were pooled and dried in a lyophilizer. The pellet was redissolved in 0.25% TFA and subjected to a second round purification using a fragmented gradient of buffer A (0.1% TFA) and B (0.085% TFA in 80% methanol). The single active peak fraction was collected, dried in a lyophilizer, and used for sequence analysis and electrospray ionization mass spectrometry (EIMS).
# [5] = test system: gram-positive bacteria including the multidrug-resistant Staphylococci and Enterococci; experiment: spectrum of antimicrobial activity; assay type: cell-based
substance,measurement,setting,value
"mutacin I: lantibiotic from Streptococcus mutans CH43, twenty-four amino acids in its mature form, approximately 2364 Da (FSSLSLCSLGCTGVKNPSFNSYCC)",antimicrobial activity,[1],equal activities
same,antimicrobial activity,[2],equal activities
same,antimicrobial activity,[3],equal activities
same,hydrophobicity,[4],more hydrophobic than mutacin III
same,resistance of sensitive bacteria,[5],resistance to mutacin has not been observed
same,spectrum of antimicrobial activity,[5],wide spectrum of antimicrobial activity
same,pH range of activity,,works in a wide range of pH
